From paper PMC6573034 (Nature Communications, 2019)
Entries after “also recorded” stand apart in the source; their conditions may differ. Like-named read-outs stand apart in the source and are kept apart here.

Tests used:
SfMCT [1] = target: T1, SfMCT (Syntrophobacter fumaroxidans, UniProt A0LNN5); format: cell-based; conditions: for Relative uptake of [14C]L-lactate (in %): WT SfMCT, competitor 1 mM final concentration, normalized to control without competitor; for competition with [14C]L-lactate uptake (in words) / reduction of [14C]L-lactate uptake: competitor 1 mM
T1 construct: expressed in transfected cells; host or cells: E. coli JA202 (MC4100 glcA::cat lldP::kan), plasmid pEXT20-SfMCT-3C-10His
T1 sequence (A0LNN5 1-412): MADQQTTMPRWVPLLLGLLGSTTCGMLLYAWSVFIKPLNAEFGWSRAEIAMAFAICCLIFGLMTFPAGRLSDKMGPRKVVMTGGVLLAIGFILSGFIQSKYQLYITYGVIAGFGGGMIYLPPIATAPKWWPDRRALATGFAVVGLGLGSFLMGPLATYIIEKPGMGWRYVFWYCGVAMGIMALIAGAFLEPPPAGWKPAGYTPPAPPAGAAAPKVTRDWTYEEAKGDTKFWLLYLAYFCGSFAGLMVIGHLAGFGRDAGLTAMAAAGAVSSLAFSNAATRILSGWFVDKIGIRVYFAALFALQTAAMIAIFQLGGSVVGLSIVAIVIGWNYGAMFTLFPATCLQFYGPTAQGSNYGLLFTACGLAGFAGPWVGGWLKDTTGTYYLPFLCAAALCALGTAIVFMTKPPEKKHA
Procedure: (§1) The cultures were grown at 37 °C and 180 r.p.m. in an incubator shaker (Multitron, Infors HT). Protein expression was induced at OD600 ~0.5 by addition of IPTG to a final concentration of 0.25 mM. After 4 h, bacteria were pelleted (5,200 × g, 10 min, room temperature) and resuspended in uptake buffer (20 mM Bis-Tris propane-HCl (pH 6.7), 250 mM KCl) to a bacteria density of OD600 12. […] Furthermore, [3-3 H] propionic acid sodium salt ([^3H]propionate, American Radiolabeled Chemicals, specific activity 30 Ci/mmol), n-[2,3-3 H] butyric acid sodium salt ([^3H]butyrate, American Radiolabeled Chemicals, specific activity 120 Ci/mmol), and [1–14 C] pyruvic acid sodium salt ([^14C]pyruvate, specific activity 0.055 Ci/mmol American Radiolabeled Chemicals) were also used for transport experiments. […] Uptake experiments were performed in 2 ml reaction tubes (Eppendorf) at 30 °C under agitation (1,000 r.p.m., Thermomixer compact, Eppendorf). […] Bacteria were immediately pelleted by centrifugation (21,000 × g, 4 min, room temperature) and washed two times with 900 μl stop buffer. Finally, bacteria were lyzed in 50 μl 5% (w/v) sodium dodecylsulfate and transferred into a white 96-well plate (Optiplate, PerkinElmer). 150 µl of scintillation cocktail (MicroScint 40, PerkinElmer) were added before measuring each reaction for 2 min with a scintillation counter (TopCount NXT, PerkinElmer). For data analysis, the signal of the empty vector was subtracted from the transporter signal. […] Cpm values of each experiment were normalized with respect to the determined upper plateau value, i.e., the fitted upper plateau value corresponds to 100%. The arithmetic average of three independent experiments was calculated. Three independent and normalized pH-dependence curves were then averaged. For data analysis Prism6 (GraphPad Software) was used. […] Equal amounts of bacteria expressing SfMCT variants were loaded on 14% SDS/polyacrylamide gels. His-tagged transporters were detected using an anti-His5 (Qiagen, catalogue number 34660, primary antibody) at a dilution of 1:3,000 and a goat anti-mouse IgG (H + L) HRP conjugate antibody (Biorad, catalogue number 172-1011, secondary antibody) at a dilution of 1:2,500.

[2] = system: vector-transformed E. coli JA202; experiment: Uptake of radioligands into vector-transformed bacteria; format: cell-based; conditions: 0.1 µCi radiolabeled monocarboxylate; vector-transformed bacteria
Procedure: The cultures were grown at 37 °C and 180 r.p.m. in an incubator shaker (Multitron, Infors HT). Protein expression was induced at OD600 ~0.5 by addition of IPTG to a final concentration of 0.25 mM. After 4 h, bacteria were pelleted (5,200 × g, 10 min, room temperature) and resuspended in uptake buffer (20 mM Bis-Tris propane-HCl (pH 6.7), 250 mM KCl) to a bacteria density of OD600 12. […] Furthermore, [3-3 H] propionic acid sodium salt ([^3H]propionate, American Radiolabeled Chemicals, specific activity 30 Ci/mmol), n-[2,3-3 H] butyric acid sodium salt ([^3H]butyrate, American Radiolabeled Chemicals, specific activity 120 Ci/mmol), and [1–14 C] pyruvic acid sodium salt ([^14C]pyruvate, specific activity 0.055 Ci/mmol American Radiolabeled Chemicals) were also used for transport experiments. […] Uptake experiments were performed in 2 ml reaction tubes (Eppendorf) at 30 °C under agitation (1,000 r.p.m., Thermomixer compact, Eppendorf). […] Bacteria were immediately pelleted by centrifugation (21,000 × g, 4 min, room temperature) and washed two times with 900 μl stop buffer. Finally, bacteria were lyzed in 50 μl 5% (w/v) sodium dodecylsulfate and transferred into a white 96-well plate (Optiplate, PerkinElmer). 150 µl of scintillation cocktail (MicroScint 40, PerkinElmer) were added before measuring each reaction for 2 min with a scintillation counter (TopCount NXT, PerkinElmer). For data analysis, the signal of the empty vector was subtracted from the transporter signal. […] Cpm values of each experiment were normalized with respect to the determined upper plateau value, i.e., the fitted upper plateau value corresponds to 100%. The arithmetic average of three independent experiments was calculated. Three independent and normalized pH-dependence curves were then averaged. For data analysis Prism6 (GraphPad Software) was used. The expression of SfMCT variants in E. coli JA202 (MC4100 glcA::cat lldP::kan)[15] was verified by Western blotting. Equal amounts of bacteria expressing SfMCT variants were loaded on 14% SDS/polyacrylamide gels. His-tagged transporters were detected using an anti-His5 (Qiagen, catalogue number 34660, primary antibody) at a dilution of 1:3,000 and a goat anti-mouse IgG (H + L) HRP conjugate antibody (Biorad, catalogue number 172-1011, secondary antibody) at a dilution of 1:2,500.

SfMCT [3] = target: T1, SfMCT; experiment: Uptake of [14C]L-lactate and other radiolabeled monocarboxylates into SfMCT expressing E. coli JA202; format: cell-based; conditions: for Uptake of radioligand by SfMCT (cpm): 0.1 µCi radiolabeled monocarboxylate, SfMCT-overexpressing bacteria; for transport by SfMCT (in words): uptake experiment using radiolabeled compound
Procedure: as §1

MCT1 = target: MCT1; parameters: method as in Ovens et al., 2010, Biochem. J. 425:523-30; conditions: reported value, ref Ovens et al., 2010, Biochem. J. 425:523-30; cited from earlier work
SfMCT-F335A = target: T2, SfMCT-F335A (Syntrophobacter fumaroxidans, UniProt A0LNN5, F335A); experiment: [14C]L-lactate transport competition assay, SfMCT-F335A; format: cell-based; conditions: competition by 1 mM ACAC
T2 construct: expressed in transfected cells; host or cells: E. coli JA202, pEXT20-SfMCT-3C-10His mutant plasmid
T2 sequence (A0LNN5 whole entry F335A): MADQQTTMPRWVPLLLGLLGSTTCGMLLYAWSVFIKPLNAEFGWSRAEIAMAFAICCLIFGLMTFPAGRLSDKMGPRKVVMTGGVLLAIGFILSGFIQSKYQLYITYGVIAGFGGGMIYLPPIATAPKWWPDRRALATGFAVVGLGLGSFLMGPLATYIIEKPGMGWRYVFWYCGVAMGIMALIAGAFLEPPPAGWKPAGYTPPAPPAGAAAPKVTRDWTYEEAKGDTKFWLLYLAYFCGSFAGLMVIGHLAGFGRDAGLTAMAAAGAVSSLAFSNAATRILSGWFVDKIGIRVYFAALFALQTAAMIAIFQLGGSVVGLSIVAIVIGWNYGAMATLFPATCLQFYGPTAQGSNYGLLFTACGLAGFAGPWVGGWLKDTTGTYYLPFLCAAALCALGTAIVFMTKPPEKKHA
Procedure: The cultures were grown at 37 °C and 180 r.p.m. in an incubator shaker (Multitron, Infors HT). Protein expression was induced at OD600 ~0.5 by addition of IPTG to a final concentration of 0.25 mM. After 4 h, bacteria were pelleted (5,200 × g, 10 min, room temperature) and resuspended in uptake buffer (20 mM Bis-Tris propane-HCl (pH 6.7), 250 mM KCl) to a bacteria density of OD600 12. […] Furthermore, [3-3 H] propionic acid sodium salt ([^3H]propionate, American Radiolabeled Chemicals, specific activity 30 Ci/mmol), n-[2,3-3 H] butyric acid sodium salt ([^3H]butyrate, American Radiolabeled Chemicals, specific activity 120 Ci/mmol), and [1–14 C] pyruvic acid sodium salt ([^14C]pyruvate, specific activity 0.055 Ci/mmol American Radiolabeled Chemicals) were also used for transport experiments. […] Cpm values of each experiment were normalized with respect to the determined upper plateau value, i.e., the fitted upper plateau value corresponds to 100%. The arithmetic average of three independent experiments was calculated. […] His-tagged transporters were detected using an anti-His5 (Qiagen, catalogue number 34660, primary antibody) at a dilution of 1:3,000 and a goat anti-mouse IgG (H + L) HRP conjugate antibody (Biorad, catalogue number 172-1011, secondary antibody) at a dilution of 1:2,500.

[4] = substrate: C[C@H](O)C(=O)O; experiment: cells, lysate or membranes; format: cell-based, Syntrophobacter fumaroxidans; conditions: other: SfMCT-mediated [14C]L-lactate uptake; average of three independent saturation experiments

For `CCC(=O)O` [propionate], the “Relative uptake of [14C]L-lactate (in %)” value (SfMCT [1]) was 58.2752%, the “competition with [14C]L-lactate uptake (in words)” value (shortened to “competition”) (SfMCT [1]) was “significantly reduced” and the “Uptake of radioligand by vector (cpm)” value [2] was 198.333 cpm. The “Uptake of radioligand by SfMCT (cpm)” value (SfMCT [3]) was 90.6667 cpm and the “transport by SfMCT (in words)” value (SfMCT [3]) was “not transported; also recorded: without being transported”.

With `C[C@@H](O)CC(=O)O` [3-HBA, (R)-3-hydroxybutyrate] the “Relative uptake of [14C]L-lactate (in %)” value (SfMCT [1]) was 93.0096% and the “reduction of [14C]L-lactate uptake” value (SfMCT [1]) was 5–14%.

For `CC(C)[C@@H]1NC(=O)[C@H](C)OC(=O)[C@@H](C(C)C)NC(=O)[C@@H](C(C)C)OC(=O)[C@H](C(C)C)NC(=O)[C@H](C)OC(=O)[C@@H](C(C)C)NC(=O)[C@@H](C(C)C)OC(=O)[C@H](C(C)C)NC(=O)[C@H](C)OC(=O)[C@@H](C(C)C)NC(=O)[C@@H](C(C)C)OC1=O` [valinomycin, reference compound], the “effect on transport of [14C]L-lactate (in words)” value (SfMCT [1]; 20 µM valinomycin) was “no effect”.

In the case of `Cc1n[nH]c(C)c1Cc1sc2c(c1C(=O)N1C[C@H](O)CO1)c(=O)n(C)c(=O)n2CC(C)C` [AR-C155858, reference compound], the “[14C]L-lactate uptake” value (SfMCT [1]; 100 µM AR-C155858, control: 100%) is given as 103% and the Ki (MCT1) is given as about 2 nM.

In the case of `C[C@@H](N)C(=O)O` [D-alanine], the “competition” value (SfMCT [1]) is reported as “absence of any competition”.

For `O=CO` [formate], the “Relative uptake of [14C]L-lactate (in %)” value (SfMCT [1]) was 96.2179%.

In the case of `N#CC(C#N)=NNc1cccc(Cl)c1` [CCCP, carbonyl cyanide 3-chlorophenylhydrazone, reference compound], the “effect on uptake of [14C]L-lactate (in words)” value (SfMCT [1]; 20 µM CCCP) is reported as “completely abolished”.

In the case of `CC(=O)C(=O)O` [pyruvate], the “Uptake of radioligand by vector (cpm)” value [2] is reported as 2551.22 cpm, the “Uptake of radioligand by SfMCT (cpm)” value (SfMCT [3]) is reported as 2342.67 cpm and the “transport by SfMCT (in words)” value (SfMCT [3]) is reported as “not transported; also recorded: does not transport”.

In the case of `CC(=O)O` [acetate], the “Relative uptake of [14C]L-lactate (in %)” value (SfMCT [1]) is reported as 90.2435%.

In the case of `C[C@H](N)C(=O)O` [L-alanine], the “competition” value (SfMCT [1]) is reported as “absence of any competition”.

With `O=C(O)CC(=O)O` [malonate] the “Relative uptake of [14C]L-lactate (in %)” value (SfMCT [1]) was 91.3566% and the “reduction of [14C]L-lactate uptake” value (SfMCT [1]) was 5–14%.

In the case of `CCCC(=O)O` [butyrate], the “competition” value (SfMCT [1]) is reported as “significantly reduced”, the “Uptake of radioligand by vector (cpm)” value [2] is reported as 197.333 cpm and the “Uptake of radioligand by SfMCT (cpm)” value (SfMCT [3]) is reported as 160.333 cpm. The “transport by SfMCT (in words)” value (SfMCT [3]) was “not transported; also recorded: without being transported”.

For `O=C(O)C(=O)O` [oxalate], the “Relative uptake of [14C]L-lactate (in %)” value (SfMCT [1]) was 95.2988% and the “reduction of [14C]L-lactate uptake” value (SfMCT [1]) was 5–14%.

With `O=C(O)CCC(=O)O` [succinate] the “Relative uptake of [14C]L-lactate (in %)” value (SfMCT [1]) was 57.9601%.

For `CC(=O)CC(=O)O` [ACAC, acetoacetate], the “Relative uptake of [14C]L-lactate (in %)” value (SfMCT-F335A) was 43.19%, the “Relative uptake of [14C]L-lactate (in %)” value (SfMCT-F335A; listed as acetoacetate) was 43% and the “Relative uptake of [14C]L-lactate (in %)” value (SfMCT [1]) was 86.3974%. The “Relative uptake of [14C]L-lactate (in %)” value (SfMCT [1]; listed as acetoacetate) was 86% and the “reduction of [14C]L-lactate uptake” value (SfMCT [1]) was 5–14%.

In the case of `O=C(O)/C=C/C(=O)O` [fumarate], the “Relative uptake of [14C]L-lactate (in %)” value (SfMCT [1]) is reported as 61.3393%.

With `O=C(O)CC(O)(CC(=O)O)C(=O)O` [citrate] the “reduction of [14C]L-lactate uptake” value (SfMCT [1]) was 5–14%.

B1: SfMCT (Syntrophobacter fumaroxidans MPOB) (protein)
chain: MADQQTTMPRWVPLLLGLLGSTTCGMLLYAWSVFIKPLNAEFGWSRAEIAMAFAICCLIFGLMTFPAGRLSDKMGPRKVVMTGGVLLAIGFILSGFIQSKYQLYITYGVIAGFGGGMIYLPPIATAPKWWPDRRALATGFAVVGLGLGSFLMGPLATYIIEKPGMGWRYVFWYCGVAMGIMALIAGAFLEPPPAGWKPAGYTPPAPPAGAAAPKVTRDWTYEEAKGDTKFWLLYLAYFCGSFAGLMVIGHLAGFGRDAGLTAMAAAGAVSSLAFSNAATRILSGWFVDKIGIRVYFAALFALQTAAMIAIFQLGGSVVGLSIVAIVIGWNYGAMFTLFPATCLQFYGPTAQGSNYGLLFTACGLAGFAGPWVGGWLKDTTGTYYLPFLCAAALCALGTAIVFMTKPPEKKHA
notes: expressed in transfected cells; host or cells: E. coli JA202 (MC4100 glcA::cat lldP::kan), plasmid pEXT20-SfMCT-3C-10His
For B1, the Km [4] was 233 ± 22 µM.
